Measured values from patent publication US20120035206A1, “PREPARATION AND APPLICATION OF NOVEL ANTIBACTERIAL AND ANTICANCER COMPOUNDS AND THEIR DERIVATIVES” (priority 2009, published 2012).
Converted amounts (≈) assume the structure as drawn.

Tests used:
Format in all cases: cell-based
C. Krusei = test: In vitro antibacterial (antifungal) test, two-fold dilution MIC; settings: Pichia kudriavzevii, RPMI 1640, culture 2-7 days
Procedure: (§1) In vitro antibacterial experiments of 25 compounds as anti-bacterial and anti-cancer compounds in the patent were tested using 14 kinds of bacteria. Tested bacteria: C. albicans, C. tropicalis, C. neoformans, E. floccosum, M. gypseum, A. niger, S. schenekn, C. parapsilosis, C. glabrata, C. Krusei, Trichoderma, Gibberella, Setrosphaeria turcica, Fusarium Oxysporum Vasinfectum. (Bacteria were from the Dermatology Hospital of Chinese Academy of Medical Sciences, Nanjing, China.)
(§2) The Preparation of tested Bacteria solution was following: incubated Bacteria were added to 5 ml physiological saline, and then they were mashed and placed with ultrasound. The solution was fully mixed, and insoluble substances were removed. The treated solution was called the original bacterium solution. In the test, the bacteria concentration in the original bacterium solution was adjusted to […].
(§3) Tested Methods: the tested compounds were dissolved in dimethyl sulfoxide. and the solution was diluted with sterile distilled water. And the distilled solution was added to sterilized RPMI 1640 medium. The concentration of the compounds were adjusted to 256, 128, 64, 32, 16, 8, 4, 2, 1, 0.5, 0.25, 0.125 ug*ml-1. Then the adjusted solutions were inoculated with tested bacteria, and the tested systems were placed in the constant temperature oven to culture for 2-7 days. The concentration at which there was no growing of fungi was taken as the minimum inhibitory concentration (MIC).

C. albicans = test: as above; settings: Candida albicans, read-out: MIC C. albicas
Procedure: as §1, §2, §3

C. glabrata = test: as above; settings: Nakaseomyces glabratus, RPMI 1640, culture 2-7 days
Procedure: as §1, §2, §3

C. neoformans = test: as above; settings: Cryptococcus neoformans, RPMI 1640, culture 2-7 days
Procedure: as §1, §2, §3

C. parapsilosis = test: as above; settings: Lodderomyces parapsilosis, RPMI 1640, culture 2-7 days
Procedure: as §1, §2, §3

C. tropicalis = test: as above; settings: Candida tropicalis, RPMI 1640, culture 2-7 days
Procedure: as §1, §2, §3

S. schenekn = test: as above; settings: RPMI 1640, culture 2-7 days
Procedure: as §1, §2, §3

E. floccosum = test: as above; settings: Epidermophyton floccosum, RPMI 1640, culture 2-7 days
Procedure: as §1, §2, §3

[1] = tested on: Fusarium oxysporum vasinfectum; test: as above; settings: RPMI 1640, culture 2-7 days
Procedure: as §1, §2, §3

M. gypseum = test: as above; settings: Nannizzia gypsea, RPMI 1640, culture 2-7 days
Procedure: as §1, §2, §3

Setosphaeria turcica = test: as above; settings: Exserohilum turcicum, RPMI 1640, culture 2-7 days
Procedure: as §1, §2, §3

Terchoderma = test: as above; settings: Trichoderma, RPMI 1640, culture 2-7 days
Procedure: as §1, §2, §3

A375 = test: In vitro anticancer MTT experiment; settings: Homo sapiens, A-375, concentration 5 ug/ml, 48 h or 72 h, read-out: inhibition ratio A375
Procedure: (§4) In vitro anticancer experiments of 25 compounds as anti-bacterial and anti-cancer compounds in the patent were tested. In the test, 14 kinds of cancer cells were used as tested cancer cells. And the results obtained by MTT method were shown in table 2 (the inhibition ratio was obtained when the concentration was 5 ug/ml). Tested Cancer Cells: SGC7901, HTB-38HT-29, CRL-2233NU-398, CRL-1469PANC-1, B0192, HTB-131MDA-453, CRL-1435PC-3, FTC133, AS24391, HTB-95637. (Cancer cells were from Chinese Military Academy of Medical Sciences). Cells Culture: Culture solution was composed of RPMI 1640 medium, 10% (VAT) Fetal calf serum and 0.01% L-glutamine. Cultured cells were maintained at 37° C. in an incubator with 5% CO2. The cells at logarithmic growth phase were used in the experiment. MTT Experiment: Single cell suspension was obtained by digesting cells with 0.25% trypsin. The cells at logarithmic growth phase were collected and seeded in a 96-well plate at a concentration of 6000-7000 cells per well. After culturing for 12 h at 37° C. in the incubator with 5% CO2, the cells were again incubated with the tested compounds of various concentrations for 48 h or 72 h. Pure cultures and cells without drug were taken as blank reference and negative reference, and 8 Wells of each group were taken. Twenty microliter of MTT (5 mg/mL) was added to each well, and the mixed solutions were incubation for 4 h. The formazan product was dissolved by dimethyl sulfoxide (DMSO, 150 μL), and the optical density (O.D.) was read at 570 nm. The Inhibition Ratio was calculated by the following formula: Inhibition Ratio=(Anegative control−Asample)/(Anegative control−Ablank control)

AS24391 = test: In vitro anticancer MTT experiment; settings: concentration 5 ug/ml, 48 h or 72 h, read-out: inhibition ratio AS24391
Procedure: as §4

B01092 = test: In vitro anticancer MTT experiment; settings: concentration 5 ug/ml, 48 h or 72 h, read-out: inhibition ratio B01092
Procedure: as §4

CRL-1435PC-3 = test: In vitro anticancer MTT experiment; settings: concentration 5 ug/ml, 48 h or 72 h, read-out: inhibition ratio CRL-1435PC-3
Procedure: as §4

CRL-2233SNU-398 = test: In vitro anticancer MTT experiment; settings: concentration 5 ug/ml, 48 h or 72 h, read-out: inhibition ratio CRL-2233SNU-398
Procedure: as §4

FTC 133 = test: In vitro anticancer MTT experiment; settings: Homo sapiens, concentration 5 ug/ml, 48 h or 72 h, read-out: inhibition ratio FTC 133
Procedure: as §4

HTB-131MDA-MB-453 = test: In vitro anticancer MTT experiment; settings: concentration 5 ug/ml, 48 h or 72 h, read-out: inhibition ratio HTB-131MDA-MB-453
Procedure: as §4

HTB-38HT-29 = test: In vitro anticancer MTT experiment; settings: concentration 5 ug/ml, 48 h or 72 h, read-out: inhibition ratio HTB-38HT-29
Procedure: as §4

HTB-94 = test: In vitro anticancer MTT experiment; settings: concentration 5 ug/ml, 48 h or 72 h, read-out: inhibition ratio HTB-94
Procedure: as §4

HTB-95637 = test: In vitro anticancer MTT experiment; settings: concentration 5 ug/ml, 48 h or 72 h, read-out: inhibition ratio HTB-95637
Procedure: as §4

L1210 = test: In vitro anticancer MTT experiment; settings: Mus musculus, concentration 5 ug/ml, 48 h or 72 h, read-out: inhibition ratio L1210
Procedure: as §4

L428 = test: In vitro anticancer MTT experiment; settings: Homo sapiens, L-428, concentration 5 ug/ml, 48 h or 72 h, read-out: inhibition ratio L428
Procedure: as §4

CRL-1469PANC-1 = test: In vitro anticancer MTT experiment; settings: concentration 5 ug/ml, 48 h or 72 h, read-out: inhibition ratio CRL-1469PANC-1
Procedure: as §4

SGC7901 = test: In vitro anticancer MTT experiment; settings: Homo sapiens, SGC-7901, concentration 5 ug/ml, 48 h or 72 h, read-out: inhibition ratio SGC7901
Procedure: as §4

SMILES	MIC (C. Krusei) [µg/mL]	MIC (C. albicans) [µg/mL]	MIC (C. glabrata) [µg/mL]	MIC (C. neoformans) [µg/mL]	MIC (C. parapsilosis) [µg/mL]	MIC (C. tropicalis) [µg/mL]	MIC (S. schenekn) [µg/mL]	MIC (E. floccosum) [µg/mL]	MIC [1] [µg/mL]	MIC (M. gypseum) [µg/mL]	MIC (Setosphaeria turcica) [µg/mL]	MIC (Terchoderma) [µg/mL]	inhibition at 5 µg/mL (AS24391) [%]	inhibition at 5 µg/mL (B01092) [%]	inhibition at 5 µg/mL (CRL-1435PC-3) [%]	inhibition at 5 µg/mL (HTB-38HT-29) [%]	inhibition at 5 µg/mL (HTB-94) [%]	inhibition at 5 µg/mL (HTB-95637) [%]	inhibition at 5 µg/mL (L1210) [%]	inhibition at 5 µg/mL (L428) [%]	other results
O=C1/C(=C\O)CSc2ccc(F)cc21 [Compound 3, 6-fluorine-3-(hydroxylmethene)thiochroman-4-one]	32 (≈ 152 µM)	32 (≈ 152 µM)	64 (≈ 304 µM)	16 (≈ 76.1 µM)	32 (≈ 152 µM)	32 (≈ 152 µM)	64 (≈ 304 µM)	–	–	–	–	–	–	–	–	–	–	–	–	–	–
O=C1/C(=C/Cl)CSc2ccc(F)cc21 [Compound 7, (Z)-3-(chloromethylene)-6-fluorothiochroman-4-one]	16 (≈ 70 µM)	4 (≈ 17.5 µM)	16 (≈ 70 µM)	16 (≈ 70 µM)	8 (≈ 35 µM)	16 (≈ 70 µM)	2 (≈ 8.75 µM)	4 (≈ 17.5 µM)	32 (≈ 140 µM)	8 (≈ 35 µM)	16 (≈ 70 µM)	8 (≈ 35 µM)	58.3	54.8	51.2	45.7	65.4	60.1	79.8	57.3	inhibition at 5 µg/mL (A375): 56%; inhibition at 5 µg/mL (CRL-2233SNU-398): 49.9%; inhibition at 5 µg/mL (FTC 133): 52.6%; inhibition at 5 µg/mL (HTB-131MDA-MB-453): 48.6%
Cc1cc2c(cc1F)SC/C(=C\Br)C2=O [Compound 9, (Z)-3-(bromomethylene)-7-fluoro-6-methylthiochroman-4-one]	4 (≈ 13.9 µM)	64 (≈ 223 µM)	64 (≈ 223 µM)	1 (≈ 3.48 µM)	8 (≈ 27.9 µM)	32 (≈ 111 µM)	32 (≈ 111 µM)	32 (≈ 111 µM)	64 (≈ 223 µM)	64 (≈ 223 µM)	32 (≈ 111 µM)	64 (≈ 223 µM)	57	39.4	36	74.6	65.6	55.8	89.5	50.1	inhibition at 5 µg/mL (CRL-1469PANC-1): 60.1%; inhibition at 5 µg/mL (CRL-2233SNU-398): 45.6%; inhibition at 5 µg/mL (HTB-131MDA-MB-453): 56.7%; inhibition at 5 µg/mL (SGC7901): 50.4%
Cc1ccc(S/C=C2\CSc3ccc(F)cc3C2=O)cc1F [Compound 12, (Z)-6-fluoro-3-(((3-fluoro-4-methylphenyl)thio)methylene)thiochroman-4-one]	64 (≈ 191 µM)	–	–	8 (≈ 23.9 µM)	–	–	64 (≈ 191 µM)	–	16 (≈ 47.8 µM)	–	–	–	49	48.4	56.6	43.2	47.5	60.5	90.9	56.8	inhibition at 5 µg/mL (A375): 60.4%; inhibition at 5 µg/mL (CRL-1469PANC-1): 45.6%; inhibition at 5 µg/mL (FTC 133): 54.5%
O=C1/C(=C/Cl)SCc2ccccc21 [Compound 14, (Z)-3-(chloromethylene)isothiochroman-4-one]	64 (≈ 304 µM)	4 (≈ 19 µM)	16 (≈ 75.9 µM)	4 (≈ 19 µM)	32 (≈ 152 µM)	32 (≈ 152 µM)	8 (≈ 38 µM)	16 (≈ 75.9 µM)	–	4 (≈ 19 µM)	–	–	36.6	56.8	48	42.6	45.6	40.5	78	34.6	inhibition at 5 µg/mL (A375): 45.5%; inhibition at 5 µg/mL (CRL-1469PANC-1): 40.6%; inhibition at 5 µg/mL (CRL-2233SNU-398): 58.9%; inhibition at 5 µg/mL (FTC 133): 30.4%; inhibition at 5 µg/mL (HTB-131MDA-MB-453): 56.7%; inhibition at 5 µg/mL (SGC7901): 50.6%
Cc1ccc2c(c1)C(O)/C(=C/Cl)CS2 (centres unmarked) [Compound 17, (Z)-3-(chloromethylene)-6-methylthiochroman-4-ol]	16 (≈ 70.6 µM)	16 (≈ 70.6 µM)	32 (≈ 141 µM)	16 (≈ 70.6 µM)	16 (≈ 70.6 µM)	4 (≈ 17.6 µM)	32 (≈ 141 µM)	16 (≈ 70.6 µM)	–	4 (≈ 17.6 µM)	16 (≈ 70.6 µM)	32 (≈ 141 µM)	–	–	–	–	–	–	–	–	–
Cc1ccc2c(c1)C(O)/C(=C\Cl)CS2 (centres unmarked) [Compound 25, (E)-3-(chloromethylene)-6-methylthiochroman-4-ol]	16 (≈ 70.6 µM)	4 (≈ 17.6 µM)	8 (≈ 35.3 µM)	16 (≈ 70.6 µM)	16 (≈ 70.6 µM)	–	8 (≈ 35.3 µM)	32 (≈ 141 µM)	–	16 (≈ 70.6 µM)	16 (≈ 70.6 µM)	–	–	–	–	–	–	–	–	–	–
O=C1/C(=C\Cl)CSc2ncccc21 [Compound 27, (E)-3-(chloromethylene)-2H-thiopyrano[2,3-b]pyridin-4(3H)-one]	8 (≈ 37.8 µM)	4 (≈ 18.9 µM)	16 (≈ 75.6 µM)	8 (≈ 37.8 µM)	4 (≈ 18.9 µM)	4 (≈ 18.9 µM)	2 (≈ 9.45 µM)	16 (≈ 75.6 µM)	16 (≈ 75.6 µM)	8 (≈ 37.8 µM)	32 (≈ 151 µM)	4 (≈ 18.9 µM)	–	–	–	–	–	–	–	–	–
